Test results published in patent US20190374509A1, “Methods of Using Metamizole for Treatment of Pyrexia in Equines” (Kindred Biosciences, Inc., priority 2018, published 2019).
Like-named read-outs stand apart in the source and are kept apart here.

What was measured:
horses [1] = experiment: Margin of safety study: lung bacterial culture at necropsy
horses [2] = experiment: Coagulation effects study, IV BID or TID for 9 days: coagulation panel; type: in vivo; conditions: for Prothrombin Time LSMEAN: in s; for Difference in Individual Horse Day 10 PT and Baseline PT: Day 10 PT minus highest baseline PT
Method: The purpose of this study was to evaluate the effects of metamizole on coagulation parameters and pharmacokinetic parameters when administered intravenously to horses for 9 days at doses of 0 mg/kg (0×), 30 mg/kg (1×), 60 mg/kg (2×), and 90 mg/kg (3×) of body weight. Doses of 0×, 1×, 2×, and 3× were administered twice daily (BID), every 12 hours±120 min. Doses of 1× and 2× were administered three times daily (TID), every 8 hours±120 min. Metamizole plasma concentrations were assessed in the 1×BID, 3×BID, 1×TID, and 2×TID treatments groups to evaluate for evidence of accumulation.
This was a prospective, randomized, masked, placebo-controlled, parallel-group laboratory study. The protocol was approved by the research laboratory's Institutional Animal Care and Use Committee (IACUC). The study was conducted in compliance with the principles of the relevant CVM Good Clinical Practices Guidelines. Horse care and housing was in compliance with Guide for the Care and Use of Agricultural Animals in Research and Teaching. The study was conducted at a research laboratory with extensive experience in regulatory studies of large animals in the United States.
The investigational drug was a sterile injectable formulation of dipyrone (Zimeta®, Corden Pharma, Caponago, Italy) (500 mg/mL) in 100 mL glass bottles. The placebo was sterile injectable saline (0.9% Saline, Nova-Tech Inc, Grand Island, NE) (0.9% sodium chloride) in 500 mL plastic bottles labeled for veterinary use. Dipyrone treatment groups were 30 mg/kg/dose (1×) administered twice daily (BID), 1× administered three times daily (TID), 60 mg/kg/dose (2×) BID, 2×TID, and 90 mg/kg/dose (3×) BID. Placebo treatment group, (0×) BID, were saline administered at a volume to match the 1× dipyrone group. The dose was calculated based on body weight and administered for nine consecutive days (Days 1-9). Due to the large volume of the injection at the higher test intervals, treatment was administered via indwelling intravenous catheters. Intravenous catheters were placed using standard techniques. Horses were sedated with xylazine (XylaMed™, VetOne, MWI, Boise, Id.) (0.6 mg/kg, IV) and the skin was desensitized with subcutaneous injection of lidocaine (Lidocaine 2%, VetOne, MWI, Boise, Id.). Intravenous catheters were replaced at the discretion of the study director and were maintained with heparinized saline flush prior to, and following, dose administration.
Horses were acclimated to the facility for 14 days prior to start of the treatment phase. […] On Day −1, thirty-two horses were randomized by the study statistician and moved to their assigned pens. On Day −1 (baseline), Day 4, and Day 10 horses had blood collected for a coagulation panel. A physical exam was performed prior to study start and on Day 10.
For continuous endpoints with repeated post-treatment measurements (coagulation), repeated measurement analysis of covariance (SAS MIXED procedure repeated measures of analysis of covariance (RMANCOVA)) were used to evaluate a model including treatment, time, sex, treatment by sex interaction, treatment by time interaction, time by sex interaction, and treatment by time by sex three-way interaction as fixed effects. In addition, baseline values were included as a covariate and remained in the model regardless of its significance. Baseline values were defined as the values prior to and nearest to the first dosing.

horses [3] = type: in vivo; conditions: 8 horses per group
Method: A study was conducted to evaluate the margin of safety of metamizole when administered intravenously to horses for 9 days at doses of 0 mg/kg (0×), 30 mg/kg (1×), 60 mg/kg (2×), and 90 mg/kg (3×) of body weight three times daily (TID), every 8 hours±30 min.
Treatment phase involved administration of the investigational drug or placebo. The investigational drug was a sterile injectable formulation of dipyrone (Zimeta™, Corden Pharma, Caponago, Italy) (500 mg/mL) in 100 mL glass bottles. The placebo was sterile injectable saline (Nova-Tech Inc, Grand Island, NE) (0.9% sodium chloride) in 500 mL plastic bottles labeled for veterinary use. Dipyrone treatment groups were 30 mg/kg (1×), 60 mg/kg (2×), and 90 mg/kg (3×). Placebo treatment group was saline administered at a volume to match the 3× dipyrone group (0×). The dose was calculated based on body weight and administered three times daily for nine consecutive days. Due to the large volume of injection at the higher dose groups, treatment was administered via indwelling intravenous (IV) catheters. Intravenous catheters were placed using standard techniques. Horses were sedated with xylazine (AnaSed® LA, VetOne, MWI, Boise, Id.) and the skin was desensitized with subcutaneous injection of lidocaine (VetOne, MWI, Boise, Id.). Intravenous catheters were replaced at the discretion of the study director and were maintained with heparinized saline flush prior to and following dose administration.
Randomization occurred on Study Day −1. […] .
All 32 horses were acclimated prior to study initiation and started the treatment phase healthy. During the study, numerous horses in all groups including placebo developed clinical signs of pneumonia likely due to exposure and incubation of respiratory pathogens prior to the start of the treatment phase. The mean time to development of pneumonia was 6.9 days with a range of 4.3 to 8.3 days. […] The other 31 horses completed the study. At the second gastroscopy examination, completed just prior to the treatment phase, one horse was noted to have purulent material draining from the guttural pouch. […]

[4] = 2X TID, 60 mg/kg IV three times daily
[5] = 3X BID, 90 mg/kg IV twice daily

**Q.** What does the source list for `Cc1c(N(C)CS(=O)(=O)O)c(=O)n(-c2ccccc2)n1C` [dipyrone, [(2,3-dihydro-1,5-dimethyl-3-oxo-2-phenyl-1H-pyrazol-4-yl)methylamino] methanesulfonic acid]?
**A.** S. aureus cultured at necropsy, number positive horses (horses [1]; 1X, 30 mg/kg IV every 8 hours): 1; Acinetobacter sp. cultured at necropsy, number positive horses (horses [1]; 2X, 60 mg/kg IV every 8 hours): 2X (n = 1); Aeromonas sp. cultured at necropsy, number positive horses (horses [1]; 2X, 60 mg/kg IV every 8 hours): 2X (n = 1); Pantoea sp. cultured at necropsy, number positive horses (horses [1]; 2X, 60 mg/kg IV every 8 hours): 2X (n = 1); Pseudomonas sp. cultured at necropsy, number positive horses (horses [1]; 2X, 60 mg/kg IV every 8 hours): 2X (n = 1); S. aureus cultured at necropsy, number positive horses (horses [1]; 2X, 60 mg/kg IV every 8 hours): 2; S. dysgalactiae subsp. equisimilis cultured at necropsy, number positive horses (horses [1]; 2X, 60 mg/kg IV every 8 hours): 2X (n = 1); S. equi subsp. zooepidemicus cultured at necropsy, number positive horses (horses [1]; 2X, 60 mg/kg IV every 8 hours): 0X (n = 2), 2X (n = 1), 3X (n = 1); S. aureus cultured at necropsy, number positive horses (horses [1]; 3X, 90 mg/kg IV every 8 hours): 2; S. equi subsp. zooepidemicus cultured at necropsy, number positive horses (horses [1]; 3X, 90 mg/kg IV every 8 hours): 0X (n = 2), 2X (n = 1), 3X (n = 1); Prothrombin Time LSMEAN (horses [2]; 1X BID, 30 mg/kg IV twice daily for 9 days): 13.407; Prothrombin Time LSMEAN (horses [2]; 1X TID, 30 mg/kg IV three times daily for 9 days): 13.553; Prothrombin Time LSMEAN (horses [2]; 2X BID, 60 mg/kg IV twice daily for 9 days): 13.469; Prothrombin Time LSMEAN (horses [2]; 2X TID, 60 mg/kg IV three times daily for 9 days): 13.733; Prothrombin Time Day 4 Range (horses [2]; [4]): 12.9 to 15.6 s; Prothrombin Time Day 10 Range (horses [2]; [4]): 13.2 to 16.6 s; Difference in Individual Horse Day 10 PT and Baseline PT (horses [2]; [4]): 0.1 to 0.5 s; Prothrombin Time LSMEAN (horses [2]; 3X BID, 90 mg/kg IV twice daily for 9 days): 14.238; Prothrombin Time Day 4 Range (horses [2]; [5]): 13.2 to 14.5 s; Prothrombin Time Day 10 Range (horses [2]; [5]): 13.4 to 14.9 s; Difference in Individual Horse Day 10 PT and Baseline PT (horses [2]; [5]): 0.1 to 0.7 s; Activated partial thromboplastin time (APTT) or fibrinogen (horses [2]; all treatment groups (30-90 mg/kg IV BID or TID, 9 days)): No main treatment effect; Nasal Discharge, number of horses (horses [3]; 1X, 30 mg/kg IV every 8 hours): 1; Nasal Discharge, number of horses (horses [3]; 2X, 60 mg/kg IV every 8 hours): 2; Nasal Discharge, number of horses (horses [3]; 3X, 90 mg/kg IV every 8 hours): 1
